Results from article PMC9380430, “Aaptamine – a dual acetyl – and butyrylcholinesterase inhibitor as potential anti-Alzheimer’s disease agent” (Pharmaceutical Biology, 2022).

Tests used:
[1] = system: AlCl3-induced zebrafish AD model; assay: AlCl3-induced zebrafish AD model, behaviour assay; assay type: in vivo; conditions: + 100 μM AlCl3, 3 d; for speed change after light stimulus: model 1.38 mm/s, control 2.56 mm/s; for movement distance during 60 min: model 4968 mm, control 9219 mm
Procedure: Briefly, the 3–6 dpf zebrafish larvae were randomly placed in a 6-well microplate at a density of 30 zebrafish per well and treated with 100 μM AlCl3 to establish the AD model. […] The control group was maintained in the reverse osmosis water with 0.5% DMSO while the model group was treated with 100 μM AlCl3 containing 0.5% DMSO. […] After 3 d, the distance and speed change after light stimulus alteration were analysed and recorded for three rhythmic light within 60 min (10 min darkness and 10 min illumination alternately) using viewpoint behaviour analyser (Zebralab V3, ViewPoint Life Sciences Co., Ltd., Lyons, France). The protocol for this study involving animals and their maintenance was approved by the Animal Care and Use Committee of Shandong Academy of Sciences (No.00612). Efficacy on motility (%)=[Dsample group−Dmodel group]/[Duntreated group−Dmodel group]×100.
D is the movement distance of zebrafish during 60 min.
Efficacy on speed change (%) = [Vsample group – Vmodel group]/[Vuntreated group – Vmodel group] × 100. V is the average velocity (mm/s) of different groups which was obtained by recording the movement distance of every min for every zebrafish during 60 min. All data are expressed as mean ± SEM and analysed by GraphPad Prism version 7.0 software (Graphpad Software Inc., La Jolla, CA). Differences between groups were examined for statistical significance using one‐way ANOVA with Tukey’s post hoc test.

AChE [2] = conditions: ref Moodie et al. [2019]; read-out: IC50 against AChE (literature); cited from earlier work
BuChE [3] = conditions: ref Moodie et al. [2019]; read-out: IC50 against BuChE (literature); cited from earlier work
AChE [4] = target: T1, AChE (Electrophorus electricus, UniProt O42275); assay: Kinetic study of AChE inhibition (Lineweaver-Burk, secondary plot); assay type: biochemical
T1 construct: AChE (200 U/g from electric eel); purchased Macklin Inc. (Shanghai, China)
Procedure: (§1) To clarify the mechanism of action of aaptamine, reciprocal plots of 1/[velocity] vs. 1/[substrate] (Lineweaver-Burk plots) were constructed at different concentrations of the substrate ATChI or BTChI (0, 1.25, 2.5, 5, 10 and 25 mM) and aaptamine (0, 5, 20 and 40 μM). Meanwhile, the parallel experiment was also carried out without aaptamine. The remaining procedure was the same as that of described in cholinesterases inhibition assay. The data were plotted on a Lineweaver–Burk diagram using Microsoft Excel 2016 to reveal the mechanism of inhibition. The steady-state inhibition constant Ki (intercept on the x-axis) was determined by the secondary plot of slope vs. the concentrations of inhibitor.

[5] = system: nicotinic acetylcholine receptors (nAChRs); conditions: ref Kudryavtsev et al. [2014]; cited from earlier work
[6] = system: nicotinic acetylcholine receptors (nAChRs); conditions: ref Kudryavtsev et al. [2014]; cited from earlier work; remark: listed apart in the source
BuChE [7] = target: T2, BuChE (Equus caballus, UniProt P81908); assay: Kinetic study of BuChE inhibition (Lineweaver-Burk, secondary plot); assay type: biochemical
T2 construct: BuChE (10 U/mg from horse serum); purchased Shanghai Yuanye Bio-Technology (Shanghai, China); host or cells: horse serum
Procedure: as §1

BuChE [8] = target: T2, BuChE; assay: biochemical; conditions: substrate BTChI, 37 °C; read-out: IC50 against BuChE
Procedure: (§2) AChE (200 U/g from electric eel) and 5,5′-dithiobis(2-nitrobenzoic acid) (DNTB) were purchased from Macklin Inc. (Shanghai, China). BuChE (10 U/mg from horse serum), acetylthiocholine iodide (ATChI) and butyrylthiocholine iodide (BTChI) were purchased from Shanghai Yuanye Bio-Technology (Shanghai, China).
(§3) The lyophilized powder of AChE and BuChE was dissolved in protein stabilizer (0.1 g BSA dissolved in 100 mL PBS) to form the storage concentration of 10 U/mL and then diluted to the required concentrations. […] After 30 min of incubation at 37 °C, 10 μL of substrate ATChI or BTChI (10 mM) were added and incubated at 37 °C for 30 min. […] For the blank control group, the assays were carried out with wells containing all components except AChE and BuChE. […] All experiments were performed in triplicate.

AChE [9] = target: T1, AChE; assay: biochemical; conditions: substrate ATChI, 37 °C; read-out: IC50 against AChE
Procedure: as §2, §3

AChE [10] = target: T1, AChE; assay: Surface plasmon resonance (SPR) assay, AChE; assay type: binding; conditions: Biacore T100, steady-state affinity fitting; read-out: Kd (equilibrium dissociation constant) for AChE
Procedure: (§4) The experiments were carried out using Biacore T100 with the Sensor Chip CM5. The chip surface was activated following standard NHS + EDC with Biacore PBS-EP (0.02 M Phosphate buffer with 2.7 mM KCl, 0.137 M NaCl and 0.05% P20) buffer used as the running buffer. 7000 RU of untagged AChE or 6600 RU of untagged BuChE was immobilized per flow cell and 100 μg/mL AChE or 20 μg/mL BuChE was injected. The cholinesterase protein is coupled to the sensor chip CM5 by amine coupling. 1 M (pH 8.5) ethanolamine-HCl was used to seal off the active group. Aaptamine was injected into the protein channel and blank channel at the following doses: 100, 50, 25, 12.5, 6.25, 3.125 and 0.39 μM at a flow rate of 30 μL/min. The protein binding period was set to 1 min, and the dissociation period was set to 2 min. The affinity was obtained by fitting the binding data using Biacore T100 Evaluation Software version 3.0 (Chicago, USA).

BuChE [11] = target: T2, BuChE; assay: Surface plasmon resonance (SPR) assay, BuChE; assay type: binding; conditions: Biacore T100, steady-state affinity fitting; read-out: Kd (equilibrium dissociation constant) for BuChE
Procedure: as §4

T2 sequence (P81908 whole entry): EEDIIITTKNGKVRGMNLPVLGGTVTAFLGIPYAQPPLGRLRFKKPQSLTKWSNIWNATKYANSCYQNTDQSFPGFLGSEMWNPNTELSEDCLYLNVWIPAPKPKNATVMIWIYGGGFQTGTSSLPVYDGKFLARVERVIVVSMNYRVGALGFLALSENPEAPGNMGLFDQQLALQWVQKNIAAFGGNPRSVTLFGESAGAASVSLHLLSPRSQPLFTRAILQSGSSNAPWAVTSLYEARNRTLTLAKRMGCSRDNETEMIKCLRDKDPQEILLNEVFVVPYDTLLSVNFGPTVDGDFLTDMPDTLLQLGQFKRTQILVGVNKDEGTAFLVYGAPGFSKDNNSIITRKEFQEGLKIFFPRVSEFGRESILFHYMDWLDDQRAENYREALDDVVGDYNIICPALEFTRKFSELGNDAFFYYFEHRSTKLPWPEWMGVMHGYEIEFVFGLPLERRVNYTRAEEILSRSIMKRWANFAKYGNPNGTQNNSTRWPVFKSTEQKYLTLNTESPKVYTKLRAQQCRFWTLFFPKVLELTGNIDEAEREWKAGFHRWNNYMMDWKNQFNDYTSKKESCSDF
T1 sequence (O42275 24-633): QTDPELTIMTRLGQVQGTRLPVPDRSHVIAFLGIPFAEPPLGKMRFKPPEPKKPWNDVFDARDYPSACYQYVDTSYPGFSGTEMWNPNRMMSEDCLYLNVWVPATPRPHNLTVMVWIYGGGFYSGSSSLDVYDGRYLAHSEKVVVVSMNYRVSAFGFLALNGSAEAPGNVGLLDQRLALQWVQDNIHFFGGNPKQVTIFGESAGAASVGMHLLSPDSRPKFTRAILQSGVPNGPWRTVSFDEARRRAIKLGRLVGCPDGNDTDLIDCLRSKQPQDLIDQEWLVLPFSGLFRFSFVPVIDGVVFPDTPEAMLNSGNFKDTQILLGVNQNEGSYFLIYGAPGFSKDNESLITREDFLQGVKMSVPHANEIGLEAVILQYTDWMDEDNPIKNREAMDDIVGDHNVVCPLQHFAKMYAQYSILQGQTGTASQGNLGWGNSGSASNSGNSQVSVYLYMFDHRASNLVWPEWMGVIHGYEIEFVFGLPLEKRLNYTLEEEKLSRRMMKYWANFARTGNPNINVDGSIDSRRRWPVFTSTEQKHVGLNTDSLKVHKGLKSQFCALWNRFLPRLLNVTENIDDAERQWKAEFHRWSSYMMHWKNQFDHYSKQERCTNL

COc1cc2c(cc1OC)C(=O)C(CC1CCN(Cc3ccccc3)CC1)C2 (centres unmarked) [donepezil, reference compound]
dyskinesia recovery rate ([1]; 8 μM): 63.7% | efficacy on speed change ([1]; 8.0 μM): 63.6% | speed change after light stimulus ([1]; 8.0 μM): 2.13 mm/s | movement distance during 60 min ([1]; 8 μM): 7675 mm

COc1cc2ccnc3c2c(c1OC)NC=C3 [aaptamine]
inhibition type towards AChE (AChE [4]; Lineweaver-Burk plots): mixed-type inhibition | Ki (AChE [4]; secondary plot of slope vs inhibitor concentration, substrate ATChI, read-out: steady-state inhibition constant Ki against AChE): 6.96 ± 0.04 µM | dyskinesia recovery rate ([1]; 5 μM): 34.8% | efficacy on speed change ([1]; 5 μM): 34.7% | speed change after light stimulus ([1]; 5 μM): 1.79 mm/s | movement distance during 60 min ([1]; 5 μM): 6447 mm | dyskinesia recovery rate ([1]; 10 μM): 58.8% | efficacy on speed change ([1]; 10 μM): 58.5% | speed change after light stimulus ([1]; 10 μM): 2.07 mm/s | movement distance during 60 min ([1]; 10 μM): 7466 mm | dyskinesia recovery rate ([1]; 20 μM): 60.0% | efficacy on speed change ([1]; 20 μM): 60.2% | speed change after light stimulus ([1]; 20 μM): 2.09 mm/s | movement distance during 60 min ([1]; 20 μM): 7517 mm | inhibitory effect on nAChRs of humans [5]: weak inhibitory effect | inhibitory effect on nAChRs of Torpedo californica [6]: weak inhibitory effect | inhibition type towards BuChE (BuChE [7]; Lineweaver-Burk plots): mixed-type inhibition | Ki (BuChE [7]; secondary plot of slope vs inhibitor concentration, substrate BTChI, read-out: steady-state inhibition constant Ki against BuChE): 6.35 ± 0.02 µM | IC50 (BuChE [8]): 4.6 µM | IC50 (AChE [9]): 16 µM | Kd (AChE [10]): 87.6 µM | Kd (BuChE [11]): 10.7 µM
